Data published in patent US20170190671A1, “BIS(ARYL)CATECHOL DERIVATIVES AS HERBICIDES” (E I DU PONT DE NEMOURS AND COMPANY, priority 2014, published 2017).

Experiments:
Format in all cases: in vivo
[1] = test system: blackgrass (Alopecurus myosuroides); assay: Test C postemergence; settings: Alopecurus myosuroides, post-emergence, 336 h, Postemergence, scale 0 to 100, read-out: Plant response rating, Blackgrass
Method in brief: (§1)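 Visual ratings were made 13-15 days after treatment in the greenhouse, scored 0-100 against controls, where 100 means complete control. Treatments used a surfactant-containing non-phytotoxic solvent formulation, applied preemergence to seeds in loam-sand soil or postemergence to 2-18 cm plants (1-4 leaves) in peat-based medium.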

[2] = test system: giant foxtail (Setaria faberii); assay: Test C postemergence; settings: Setaria faberi, post-emergence, 336 h, Postemergence, scale 0 to 100, read-out: Plant response rating, Foxtail, Giant
Method in brief: as §1

[3] = test system: lambsquarters (Chenopodium album); assay: Test C postemergence; settings: Chenopodium album, post-emergence, 336 h, Postemergence, scale 0 to 100, read-out: Plant response rating, Lambsquarters
Method in brief: as §1

[4] = test system: yellow nutsedge (Cyperus esculentus); assay: Test C postemergence; settings: Cyperus, post-emergence, 336 h, Postemergence, scale 0 to 100, read-out: Plant response rating, Nutsedge, Yellow
Method in brief: as §1

[5] = test system: velvetleaf (Abutilon theophrasti); assay: Test C postemergence; settings: Abutilon theophrasti, post-emergence, Postemergence, scale 0 to 100, read-out: Plant response rating, Velvetleaf
Method in brief: as §1

[6] = test system: chickweed (common chickweed, Stellaria media); assay: Test C postemergence; settings: Stellaria media, post-emergence, Postemergence, scale 0 to 100, read-out: Plant response rating, Chickweed
Method in brief: as §1

[7] = test system: galium (catchweed bedstraw, Galium aparine); assay: Test C preemergence; settings: Galium, pre-emergence, 336 h, scale 0 to 100, read-out: Plant response rating, Galium
Method in brief: as §1

[8] = test system: blackgrass (Alopecurus myosuroides); assay: Test C preemergence; settings: Alopecurus myosuroides, pre-emergence, 336 h, scale 0 to 100, read-out: Plant response rating, Blackgrass
Method in brief: as §1

[9] = test system: giant foxtail (Setaria faberii); assay: Test C preemergence; settings: Setaria faberi, pre-emergence, 336 h, scale 0 to 100, read-out: Plant response rating, Foxtail, Giant
Method in brief: as §1

[10] = test system: Italian ryegrass (Lolium multiflorum); assay: Test C preemergence; settings: Lolium multiflorum, pre-emergence, 336 h, scale 0 to 100, read-out: Plant response rating, Ryegrass, Italian
Method in brief: as §1

corn (Zea mays) = assay: Test C preemergence; settings: Zea mays, pre-emergence, 336 h, scale 0 to 100
Method in brief: as §1

[11] = test system: ragweed (common ragweed, Ambrosia elatior); assay: Test C preemergence; settings: Ambrosia artemisiifolia, pre-emergence, 336 h, scale 0 to 100, read-out: Plant response rating, Ragweed
Method in brief: as §1

[12] = test system: winter wheat (Triticum aestivum); assay: Test C preemergence; settings: Triticum aestivum, pre-emergence, 336 h, scale 0 to 100, read-out: Plant response rating, Wheat
Method in brief: as §1

[13] = test system: waterhemp (common waterhemp, Amaranthus rudis); assay: Test C preemergence; settings: Amaranthus tuberculatus, pre-emergence, scale 0 to 100, read-out: Plant response rating, Waterhemp
Method in brief: as §1

[14] = test system: large (Lg) crabgrass (Digitaria sanguinalis); assay: Test C preemergence; settings: Digitaria sanguinalis, pre-emergence, 336 h, scale 0 to 100, read-out: Plant response rating, Crabgrass, Large
Method in brief: as §1

[15] = test system: morningglory (Ipomoea coccinea); assay: Test C preemergence; settings: Ipomoea, pre-emergence, 336 h, scale 0 to 100, read-out: Plant response rating, Morningglory
Method in brief: as §1

[16] = test system: oilseed rape (Brassica napus); assay: Test C preemergence; settings: Brassica napus, pre-emergence, scale 0 to 100, read-out: Plant response rating, Oilseed Rape
Method in brief: as §1

[17] = test system: yellow nutsedge (Cyperus esculentus); assay: Test C preemergence; settings: Cyperus, pre-emergence, 336 h, scale 0 to 100, read-out: Plant response rating, Nutsedge, Yellow
Method in brief: as §1

[18] = test system: velvetleaf (Abutilon theophrasti); assay: Test C preemergence; settings: Abutilon theophrasti, pre-emergence, scale 0 to 100, read-out: Plant response rating, Velvetleaf
Method in brief: as §1

[19] = test system: pigweed (Amaranthus retroflexus); assay: Test C preemergence; settings: Amaranthus retroflexus, pre-emergence, 336 h, scale 0 to 100, read-out: Plant response rating, Pigweed
Method in brief: as §1

[20] = test system: johnsongrass (Sorghum halepense); assay: Test C preemergence; settings: Sorghum halepense, pre-emergence, 336 h, scale 0 to 100, read-out: Plant response rating, Johnsongrass
Method in brief: as §1

soybean (Glycine max) = assay: Test C preemergence; settings: Glycine max, pre-emergence, scale 0 to 100, read-out: Plant response rating, Soybean
Method in brief: as §1

N#Cc1cccc(Oc2ncc(C(F)(F)F)cn2)c1Oc1ncc(Cl)cn1 [Compound 39, 2-[(5-chloro-2-pyrimidinyl)oxy]-3-[[5-(trifluoromethyl)-2-pyrimidinyl]oxy]-benzonitrile]
40%: Corn plant response rating (crop injury, 0 = no effect, 100 = complete kill) at 31 g/ha (corn (Zea mays); 31 g ai/ha, preemergence) | pest or weed control at 31 g/ha ([11]; 31 g ai/ha, preemergence) | pest or weed control at 16 g/ha ([18]; Preemergence, 16 g ai/ha)
98%: pest or weed control at 62 g/ha ([15]; 62 g ai/ha, preemergence) | pest or weed control at 31 g/ha ([19]; 31 g ai/ha, preemergence)
95%: pest or weed control at 31 g/ha ([9]; 31 g ai/ha, preemergence) | plant injury at 125 g/ha (soybean (Glycine max); 125 g ai/ha, preemergence)
0%: pest or weed control at 16 g/ha ([8]; Preemergence, 16 g ai/ha) | pest or weed control at 16 g/ha ([10]; Preemergence, 16 g ai/ha) | plant injury at 31 g/ha ([12]; 31 g ai/ha, preemergence) | plant injury at 16 g/ha ([12]; Preemergence, 16 g ai/ha) | pest or weed control at 16 g/ha ([17]; Preemergence, 16 g ai/ha)
35%: plant injury at 16 g/ha (soybean (Glycine max); Preemergence, 16 g ai/ha)
80%: pest or weed control at 62 g/ha ([3]; 62 g ai/ha) | pest or weed control at 31 g/ha ([15]; 31 g ai/ha, preemergence) | plant injury at 16 g/ha ([16]; Preemergence, 16 g ai/ha)
75%: pest or weed control at 16 g/ha ([3]; 16 g ai/ha) | pest or weed control at 62 g/ha ([10]; 62 g ai/ha, preemergence) | pest or weed control at 31 g/ha ([18]; 31 g ai/ha, preemergence)
60%: pest or weed control at 62 g/ha ([5]; 62 g ai/ha) | pest or weed control at 125 g/ha ([5]; 125 g ai/ha) | pest or weed control at 16 g/ha ([6]; 16 g ai/ha) | pest or weed control at 31 g/ha ([6]; 31 g ai/ha) | plant injury at 125 g/ha ([12]; 125 g ai/ha, preemergence)
85%: pest or weed control at 125 g/ha ([3]; 125 g ai/ha) | pest or weed control at 62 g/ha ([7]; 62 g ai/ha, preemergence) | pest or weed control at 16 g/ha ([7]; Preemergence, 16 g ai/ha) | Corn plant response rating (crop injury, 0 = no effect, 100 = complete kill) at 125 g/ha (corn (Zea mays); 125 g ai/ha, preemergence) | pest or weed control at 125 g/ha ([11]; 125 g ai/ha, preemergence) | pest or weed control at 62 g/ha ([17]; 62 g ai/ha, preemergence) | pest or weed control at 125 g/ha ([17]; 125 g ai/ha, preemergence) | pest or weed control at 62 g/ha ([20]; 62 g ai/ha, preemergence) | plant injury at 62 g/ha (soybean (Glycine max); 62 g ai/ha, preemergence)
5%: pest or weed control at 16 g/ha ([1]; 16 g ai/ha) | pest or weed control at 31 g/ha ([4]; 31 g ai/ha) | pest or weed control at 62 g/ha ([4]; 62 g ai/ha) | pest or weed control at 125 g/ha ([4]; 125 g ai/ha) | Corn plant response rating (crop injury, 0 = no effect, 100 = complete kill) at 16 g/ha (corn (Zea mays); Preemergence, 16 g ai/ha)
20%: pest or weed control at 125 g/ha ([2]; 125 g ai/ha) | pest or weed control at 31 g/ha ([10]; 31 g ai/ha, preemergence) | pest or weed control at 31 g/ha ([17]; 31 g ai/ha, preemergence)
70%: pest or weed control at 31 g/ha ([3]; 31 g ai/ha)
25%: pest or weed control at 16 g/ha ([20]; Preemergence, 16 g ai/ha)
55%: pest or weed control at 31 g/ha ([5]; 31 g ai/ha) | pest or weed control at 16 g/ha ([9]; Preemergence, 16 g ai/ha)
65%: pest or weed control at 62 g/ha ([11]; 62 g ai/ha, preemergence) | pest or weed control at 31 g/ha ([20]; 31 g ai/ha, preemergence) | plant injury at 31 g/ha (soybean (Glycine max); 31 g ai/ha, preemergence)
50%: pest or weed control at 31 g/ha ([8]; 31 g ai/ha, preemergence)
15%: pest or weed control at 62 g/ha ([1]; 62 g ai/ha) | pest or weed control at 16 g/ha ([11]; Preemergence, 16 g ai/ha)
10%: pest or weed control at 31 g/ha ([1]; 31 g ai/ha) | pest or weed control at 16 g/ha ([2]; 16 g ai/ha) | pest or weed control at 31 g/ha ([2]; 31 g ai/ha) | pest or weed control at 62 g/ha ([2]; 62 g ai/ha)
90%: pest or weed control at 62 g/ha ([6]; 62 g ai/ha) | pest or weed control at 125 g/ha ([6]; 125 g ai/ha) | pest or weed control at 31 g/ha ([7]; 31 g ai/ha, preemergence) | pest or weed control at 62 g/ha ([8]; 62 g ai/ha, preemergence) | pest or weed control at 125 g/ha ([8]; 125 g ai/ha, preemergence) | pest or weed control at 125 g/ha ([10]; 125 g ai/ha, preemergence) | plant injury at 31 g/ha ([16]; 31 g ai/ha, preemergence)
45%: Corn plant response rating (crop injury, 0 = no effect, 100 = complete kill) at 62 g/ha (corn (Zea mays); 62 g ai/ha, preemergence) | pest or weed control at 16 g/ha ([15]; Preemergence, 16 g ai/ha)
100%: pest or weed control at 125 g/ha ([7]; 125 g ai/ha, preemergence) | pest or weed control at 62 g/ha ([9]; 62 g ai/ha, preemergence) | pest or weed control at 125 g/ha ([9]; 125 g ai/ha, preemergence) | pest or weed control at 31 g/ha ([13]; 31 g ai/ha, preemergence) | pest or weed control at 62 g/ha ([13]; 62 g ai/ha, preemergence) | pest or weed control at 125 g/ha ([13]; 125 g ai/ha, preemergence) | pest or weed control at 16 g/ha ([13]; Preemergence, 16 g ai/ha) | pest or weed control at 31 g/ha ([14]; 31 g ai/ha, preemergence) | pest or weed control at 62 g/ha ([14]; 62 g ai/ha, preemergence) | pest or weed control at 125 g/ha ([14]; 125 g ai/ha, preemergence) | pest or weed control at 16 g/ha ([14]; Preemergence, 16 g ai/ha) | pest or weed control at 125 g/ha ([15]; 125 g ai/ha, preemergence) | plant injury at 62 g/ha ([16]; 62 g ai/ha, preemergence) | plant injury at 125 g/ha ([16]; 125 g ai/ha, preemergence) | pest or weed control at 62 g/ha ([18]; 62 g ai/ha, preemergence) | pest or weed control at 125 g/ha ([18]; 125 g ai/ha, preemergence) | pest or weed control at 62 g/ha ([19]; 62 g ai/ha, preemergence) | pest or weed control at 125 g/ha ([19]; 125 g ai/ha, preemergence) | pest or weed control at 16 g/ha ([19]; Preemergence, 16 g ai/ha) | pest or weed control at 125 g/ha ([20]; 125 g ai/ha, preemergence)
30%: pest or weed control at 125 g/ha ([1]; 125 g ai/ha) | plant injury at 62 g/ha ([12]; 62 g ai/ha, preemergence)
